Test systems include COLO 205 colon; HCT-116 colon; HT29 colon; HCC-2998 colon; SK-MEL-28 melanoma; MCF7 breast; SR leukemia; NCI/ADR-RES ovarian; OVCAR-8 ovarian; MDA-MB-231 breast.
What all share (experiment): NCI anticancer screen, dose series, 48 h

Molecules are shown by their SMILES.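 1) Cells in 96-well plates. 2) Compound, 48 h, 5 concentrations. 3) Linear interpolation between surrounding doses. 4) Unreached endpoint = highest concentration. Abbreviation: GI50, concentration required for 50% inhibition of growth. The concentration for full growth arrest is given as TGI.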 Some results are limits rather than exact numbers.

In the case of `Clc1ccccc1C(SCc1ccccc1)SCc1ccccc1`, the TGI in the test on COLO 205 colon, in the test with HCT-116 colon, in the test on HT29 colon, in the test on HCC-2998 colon, in the test with SK-MEL-28 melanoma and with MCF7 breast was greater than 100 µM each time. Moreover, the TGI with SR leukemia, in the test with NCI/ADR-RES ovarian and with OVCAR-8 ovarian was greater than 100 µM each time.

`OC1CSSC1Cn1cnc2c(Nc3ccc(OCc4cccc(F)c4)c(Cl)c3)ncnc21` (stereo not drawn): the GI50 in the test with COLO 205 colon was 2830 nM; in the test with MDA-MB-231 breast it was 986 nM; in the test on HCT-116 colon, 687 nM; in the test on HT29 colon, 744 nM; with HCC-2998 colon, 952 nM; in the test with SK-MEL-28 melanoma, 591 nM. Further, the GI50 in the test with MCF7 breast is 509 nM; in the test with SR leukemia, 407 nM; with NCI/ADR-RES ovarian it was 3.26 µM; in the test on OVCAR-8 ovarian it was 3.71 µM. The TGI with COLO 205 colon turned out to be 8.69 µM; with MDA-MB-231 breast, 4.53 µM; in the test on HCT-116 colon, 3.84 µM; in the test on HT29 colon, 3.91 µM; with HCC-2998 colon it was 3.49 µM; with SK-MEL-28 melanoma it was 4.64 µM. Besides, the TGI was determined as 1.29 µM in the test with MCF7 breast, 1.59 µM in the test with SR leukemia, 12.3 µM in the test on NCI/ADR-RES ovarian and 12 µM in the test on OVCAR-8 ovarian.

As to `Fc1[nH]nc2ccc([C@@H]3Nc4ccc5[nH]ncc5c4[C@H]4C5CCC(C5)[C@@H]34)cc12` (stereo partly drawn), the GI50 was 801 nM in the test with COLO 205 colon; 1970 nM in the test on MDA-MB-231 breast; 441 nM in the test on HCT-116 colon; 439 nM in the test on HT29 colon; 3140 nM with HCC-2998 colon; 1540 nM in the test with SK-MEL-28 melanoma. Further, the GI50 in the test with MCF7 breast was 387 nM; with SR leukemia, 370 nM; in the test with NCI/ADR-RES ovarian it was 0.576 µM; with OVCAR-8 ovarian, 2.46 µM. Moreover, the TGI in the test with COLO 205 colon was found to be 4.81 µM; in the test with MDA-MB-231 breast it was 17.5 µM; with HCT-116 colon, 12.1 µM; in the test on HT29 colon it was 12.8 µM; with HCC-2998 colon, 12.8 µM; in the test with SK-MEL-28 melanoma it was 16.2 µM. For the same molecule, the TGI was 12.6 µM with MCF7 breast, 3.61 µM in the test with SR leukemia, 8.99 µM in the test with NCI/ADR-RES ovarian and 16.4 µM with OVCAR-8 ovarian.

Take `FC(F)(F)c1cccc(Nc2nc(-c3ccccc3)nc3ncccc23)c1`: the GI50 is 4070 nM in the test on COLO 205 colon; 4880 nM in the test on MDA-MB-231 breast; 3620 nM in the test on HCT-116 colon; 3150 nM in the test on HT29 colon; 4910 nM with HCC-2998 colon; 7930 nM in the test with SK-MEL-28 melanoma. Also, the GI50 was 3720 nM with MCF7 breast, 2610 nM in the test with SR leukemia, 4.07 µM in the test on NCI/ADR-RES ovarian and 3.74 µM in the test with OVCAR-8 ovarian. Also, the TGI is 13.9 µM in the test on COLO 205 colon; 41.2 µM with MDA-MB-231 breast; 13.7 µM in the test with HCT-116 colon; 12 µM with HT29 colon; 30.2 µM in the test with HCC-2998 colon; 74.4 µM in the test with SK-MEL-28 melanoma. Moreover, the TGI in the test with MCF7 breast was determined as 14.7 µM; in the test on SR leukemia, 13.3 µM; in the test with NCI/ADR-RES ovarian, 23.5 µM; in the test with OVCAR-8 ovarian, 18.2 µM.

As to `NC(N)=NS(=O)(=O)c1ccc(Nc2c3ccccc3nc3c(C(=O)NCCO)cccc23)cc1`, the GI50 with COLO 205 colon is 33600 nM; in the test on MDA-MB-231 breast it was 24600 nM; in the test with HCT-116 colon, 21900 nM; in the test on HT29 colon, 29700 nM; in the test with HCC-2998 colon, 92.8 nM; in the test with SK-MEL-28 melanoma, 20300 nM. In addition, the GI50 with MCF7 breast is 13500 nM; in the test on SR leukemia it was 30700 nM; with NCI/ADR-RES ovarian, 48.7 µM; in the test on OVCAR-8 ovarian it was 29.8 µM. In addition, the TGI in the test on HCT-116 colon and in the test on NCI/ADR-RES ovarian was greater than 100 µM throughout.

Turning to `Cc1ccc(Cl)c2c(N=Nc3ccccc3[N+](=O)[O-])c(O)[nH]c12`, the TGI in the test on COLO 205 colon, in the test with MDA-MB-231 breast, in the test with HCT-116 colon, in the test with HT29 colon, with HCC-2998 colon and in the test on SK-MEL-28 melanoma was greater than 100 µM throughout. For the same molecule, the TGI in the test with MCF7 breast, in the test on SR leukemia, in the test on NCI/ADR-RES ovarian and in the test on OVCAR-8 ovarian was greater than 100 µM throughout.

Turning to `COc1cc2c(cc1OCCCCN1CCN(CC(=O)Nc3ccc(Cl)cc3C(=O)c3ccccc3Cl)CC1)N=CC1CCCN1C2=O` (stereo not drawn), the GI50 in the test on COLO 205 colon was 175 nM; in the test on MDA-MB-231 breast, 251 nM; with HCT-116 colon, 225 nM; in the test with HT29 colon, 250 nM; in the test on HCC-2998 colon, 194 nM; with SK-MEL-28 melanoma, 229 nM. Also, the GI50 is 167 nM in the test on MCF7 breast, 138 nM with SR leukemia and 0.327 µM in the test on OVCAR-8 ovarian. For the same molecule, the TGI came to 0.335 µM in the test on COLO 205 colon; 0.759 µM with MDA-MB-231 breast; 0.664 µM in the test on HCT-116 colon; 1.04 µM in the test on HT29 colon; 0.343 µM in the test on HCC-2998 colon; 0.453 µM with SK-MEL-28 melanoma. In addition, the TGI with MCF7 breast worked out at 0.567 µM; in the test on SR leukemia it was 0.456 µM; with OVCAR-8 ovarian, 1.09 µM.

On to `COC(CCC[N+](C)(C)C)CC[N+](C)(C)C` (stereo not drawn), for which the TGI in the test with COLO 205 colon, in the test on HCT-116 colon, in the test with HT29 colon, in the test on HCC-2998 colon, in the test with SK-MEL-28 melanoma and in the test on MCF7 breast was greater than 100 µM in each case. The TGI in the test on SR leukemia, in the test with NCI/ADR-RES ovarian and with OVCAR-8 ovarian was greater than 100 µM each time.

Take `Cc1ccsc1C(=S)Nc1ccc(Cl)c(/C=N/OC(C)(C)C)c1`: the TGI in the test with COLO 205 colon was 33.7 µM; in the test on MDA-MB-231 breast it was 69.9 µM; in the test with HCT-116 colon, greater than 100 µM; in the test on HT29 colon, 27.1 µM; in the test on HCC-2998 colon, 48.5 µM; with SK-MEL-28 melanoma, greater than 100 µM. Besides, the TGI in the test with MCF7 breast is greater than 100 µM; in the test on SR leukemia it was 61.7 µM; in the test on NCI/ADR-RES ovarian it was greater than 100 µM; in the test with OVCAR-8 ovarian, greater than 100 µM.
